Test system: E. coli
Experiment: Disk diffusion method, zone of inhibition
Type: cell-based, Escherichia coli
Protocol: Working solutions were prepared by dissolving of N-alkylimidazoles (100 mg) in ethanol (50 μL). Blank disks were impregnated with 10 μL of solution and the disks placed on nutrient agar containing a confluent E. coli culture. The plates were incubated at 37° C. for 18-24 h and antimicrobial activity determined by measuring the zone of inhibition. The experiments were performed in triplicate.
The antibacterial activity of N-alkylimidazoles was investigated by the disk diffusion and broth methods against E. coli as a model microorganism.

## silver(I)-N-octylimidazole complex [Ag(octlm)2]
Disk diffusion against E. coli, comparison across alkyl chain lengths
  antibacterial activity (in words): superior activity
Disk diffusion, nutrient agar with confluent E. coli culture, 37° C., 18-24 h, triplicate
  Zone of inhibition diameter: 21 ± 1.4 mm
